Several values for one entry are separate records, joined by “and”; a condition that tells them apart may be missing. Equal entries are not always repeated. Inconclusive results and toxic doses are left out. Where a SMILES comes first, the peptide text is derived from it.
Tested on: B6C3F1 mice, B16 melanoma ip, median survival T/C
Assay: NCI In Vivo Anticancer Drug Screen. Data for tumor model B16 Melanoma (intraperitoneal) in B6C3F1 mice
Conditions: endpoint: median survival time, schedule: Q01DX009 (ip), higher = longer survival
In short: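 Antitumor effect was judged in mice with transplanted tumors by dividing the treated group's survival measure by that of vehicle controls.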

[1] = dose: 6.25 mg/kg/injection, vehicle: Klucel (hydroxypropylcellulose) (HPC)
[2] = dose: 12.5 mg/kg/injection, vehicle: Klucel (hydroxypropylcellulose) (HPC)
[3] = dose: 25.0 mg/kg/injection, vehicle: Klucel (hydroxypropylcellulose) (HPC)
[4] = dose: 50.0 mg/kg/injection, vehicle: saline + Tween-80 + alcohol
[5] = dose: 100.0 mg/kg/injection, vehicle: Klucel (hydroxypropylcellulose) (HPC)
[6] = dose: 200.0 mg/kg/injection, vehicle: Klucel (hydroxypropylcellulose) (HPC)
[7] = dose: 400.0 mg/kg/injection, vehicle: Klucel (hydroxypropylcellulose) (HPC)
[8] = dose: 3.12 mg/kg/injection, vehicle: saline with Tween-80
[9] = dose: 6.25 mg/kg/injection, vehicle: saline with Tween-80
[10] = dose: 12.5 mg/kg/injection, vehicle: saline with Tween-80
[11] = dose: 25.0 mg/kg/injection, vehicle: saline with Tween-80
[12] = dose: 50.0 mg/kg/injection, vehicle: saline with Tween-80
[13] = dose: 100.0 mg/kg/injection, vehicle: saline with Tween-80
[14] = dose: 200.0 mg/kg/injection, vehicle: saline with Tween-80
[15] = dose: 400.0 mg/kg/injection, vehicle: saline with Tween-80
[16] = dose: 1.56 mg/kg/injection, vehicle: saline with Tween-80

CCN(CC)CCCC(C)Nc1c2ccc(Cl)cc2nc2ccc(OC)cc12 (stereo unspecified)
T/C (dose: 3.75 mg/kg/injection, vehicle: Klucel (hydroxypropylcellulose) (HPC)): 102 % of control | T/C (dose: 7.5 mg/kg/injection, vehicle: Klucel (hydroxypropylcellulose) (HPC)): 98 % of control | T/C (dose: 15.0 mg/kg/injection, vehicle: Klucel (hydroxypropylcellulose) (HPC)): 109 % of control | T/C (dose: 30.0 mg/kg/injection, vehicle: Klucel (hydroxypropylcellulose) (HPC)): 121 % of control

CC1(C)N=C(N)N=C(N)N1c1cccc(CCCCc2cccc(N)c2)c1
T/C [1]: 103 % of control | T/C [2]: 108 % of control | T/C [3]: 114 % of control

CCCCC/C(=C\c1ccccc1)C1OCC(COCC)O1 (stereo unspecified)
T/C (dose: 6.25 mg/kg/injection, vehicle: saline + Tween-80 + alcohol): 87 % of control | T/C (dose: 12.5 mg/kg/injection, vehicle: saline + Tween-80 + alcohol): 91 % of control | T/C (dose: 25.0 mg/kg/injection, vehicle: saline + Tween-80 + alcohol): 94 % of control | T/C [4]: 93 % of control

CS(=O)(=O)OCCn1c(=O)n(CCOS(C)(=O)=O)c(=O)n(CCOS(C)(=O)=O)c1=O
T/C [5]: 97 % of control | T/C [6]: 95 % of control | T/C [7]: 86 % of control

OCC1OC(n2cnc3c2NC=NC[C@H]3O)CC1O (stereo partly specified)
T/C (dose: 0.13 mg/kg/injection, vehicle: saline): 84 % of control | T/C (dose: 0.25 mg/kg/injection, vehicle: saline): 78 % of control | T/C (dose: 0.5 mg/kg/injection, vehicle: saline): 96 % of control

Cc1nn(CCO)c(C)c1N=[N+]([O-])c1c(C)nn(CCO)c1C
T/C (dose: 3.12 mg/kg/injection, vehicle: Klucel (hydroxypropylcellulose) (HPC)): 107 % of control | T/C [8]: 97 % of control | T/C [1]: 109 % of control | T/C [9]: 100 % of control | T/C [2]: 111 % of control | T/C [10]: 92 % of control | T/C [3]: 95 % of control | T/C [11]: 92 % of control | T/C (dose: 50.0 mg/kg/injection, vehicle: Klucel (hydroxypropylcellulose) (HPC)): 91 % of control | T/C [12]: 96 % of control | T/C [5]: 91 % of control

C=CCNC(=O)c1ccccc1SC(C)=O
T/C [4]: 101 % of control | T/C (dose: 100.0 mg/kg/injection, vehicle: saline + Tween-80 + alcohol): 112 % of control and 103 % of control | T/C [13]: 91 % of control | T/C (dose: 200.0 mg/kg/injection, vehicle: saline + Tween-80 + alcohol): 119 % of control | T/C [14]: 104 % of control | T/C (dose: 400.0 mg/kg/injection, vehicle: saline + Tween-80 + alcohol): 114 % of control | T/C [15]: 116 % of control

COc1cc2c(c(OC)c1O)-c1ccc(SC)c(=O)cc1C(NC(C)=O)CC2 (stereo unspecified)
T/C (dose: 2.5 mg/kg/injection, vehicle: water): 119 % of control | T/C (dose: 5.0 mg/kg/injection, vehicle: water): 119 % of control | T/C (dose: 10.0 mg/kg/injection, vehicle: water): 116 % of control | T/C (dose: 20.0 mg/kg/injection, vehicle: water): 119 % of control | T/C (dose: 40.0 mg/kg/injection, vehicle: water): 122 % of control

CCCC(=O)c1ccco1
T/C [10]: 98 % of control | T/C [11]: 109 % of control | T/C [12]: 100 % of control

O=C(O)C1Cc2nc[nH]c2CN1CO (stereo unspecified)
T/C [10]: 104 % of control | T/C [11]: 102 % of control | T/C [12]: 105 % of control | T/C [13]: 109 % of control | T/C [14]: 106 % of control | T/C [15]: 104 % of control

CC(C)C1C(=O)N2CCCC2C2(O)OC(NC(=O)C3C=C4c5cccc6[nH]cc(c56)CC4N(C)C3)(C(C)C)C(=O)N12 (stereo unspecified)
T/C (dose: 8.0 mg/kg/injection, vehicle: Klucel (hydroxypropylcellulose) (HPC)): 106 % of control | T/C (dose: 16.0 mg/kg/injection, vehicle: Klucel (hydroxypropylcellulose) (HPC)): 109 % of control | T/C (dose: 32.0 mg/kg/injection, vehicle: Klucel (hydroxypropylcellulose) (HPC)): 117 % of control | T/C (dose: 64.0 mg/kg/injection, vehicle: Klucel (hydroxypropylcellulose) (HPC)): 105 % of control

CCCC(NC(=O)CNC(=O)CNC(=O)OCc1ccccc1)C(=O)O (stereo unspecified) (HELM PEPTIDE1{[O=C(OCc1ccccc1)[*:2]].G.G.[CCCC(N[*:1])C(=O)O]}$$$$V2.0)
T/C [5]: 105 % of control | T/C [6]: 103 % of control | T/C [7]: 112 % of control

O/N=C/c1ccccc1O.O/N=C/c1ccccc1O.[Cu]
T/C [16]: 94 % of control and 95 % of control | T/C [8]: 110 % of control and 86 % of control | T/C [9]: 106 % of control | T/C [10]: 113 % of control and 88 % of control | T/C [11]: 95 % of control | T/C [12]: 95 % of control

Cc1cc(N(CC(C)Br)CC(C)Br)ccc1N=Nc1ccccc1C(=O)O (stereo unspecified)
T/C (dose: 0.78 mg/kg/injection, vehicle: saline): 105 % of control | T/C [16]: 110 % of control | T/C (dose: 1.56 mg/kg/injection, vehicle: saline): 98 % of control | T/C [8]: 164 % of control | T/C (dose: 3.12 mg/kg/injection, vehicle: saline): 111 % of control | T/C (dose: 6.25 mg/kg/injection, vehicle: saline): 108 % of control

O=C1C2CC(Cl)C(SSC3CC4C(=O)N(SC(Cl)(Cl)C(Cl)Cl)C(=O)C4CC3Cl)CC2C(=O)N1SC(Cl)(Cl)C(Cl)Cl (stereo unspecified)
T/C [11]: 98 % of control | T/C [12]: 104 % of control | T/C [13]: 98 % of control

COc1cc2cc(c1Cl)N(C)C(=O)/C=C/C1(C)OC1C(C)C1CC(O)(NC(=O)O1)C(OC)/C=C/C=C(\C)C2OC (stereo unspecified)
T/C (dose: 4.0 micrograms/kg/injection, vehicle: distilled water + alcohol): 117 % of control | T/C (dose: 8.0 micrograms/kg/injection, vehicle: distilled water + alcohol): 105 % of control | T/C (dose: 16.0 micrograms/kg/injection, vehicle: distilled water + alcohol): 112 % of control

CC(=O)N(C)C
T/C (dose: 122.5 mg/kg/injection, vehicle: saline): 89 % of control | T/C (dose: 225.0 mg/kg/injection, vehicle: saline): 95 % of control | T/C (dose: 450.0 mg/kg/injection, vehicle: saline): 95 % of control | T/C (dose: 900.0 mg/kg/injection, vehicle: saline): 105 % of control | T/C (dose: 1800.0 mg/kg/injection, vehicle: saline): 114 % of control

CCN1C[C@]2(COC)[C@H](O)C[C@H](OC)[C@]34C1[C@H]([C@H](OC)[C@H]23)[C@]1(OC(C)=O)[C@H]2[C@@H](OC(=O)c3ccccc3)[C@](O)(C[C@H]24)[C@@H](OC)[C@@H]1O
T/C (dose: 7.5 micrograms/kg/injection, vehicle: saline): 118 % of control | T/C (dose: 15.0 micrograms/kg/injection, vehicle: saline): 115 % of control | T/C (dose: 30.0 micrograms/kg/injection, vehicle: saline): 99 % of control | T/C (dose: 60.0 micrograms/kg/injection, vehicle: saline): 122 % of control

COc1oc(C2C/C(=C/C(C)=C/C(C)=C/C(C)=C/c3ccc([N+](=O)[O-])cc3)CO2)c(C)c(=O)c1C (stereo unspecified)
T/C (dose: 0.25 mg/kg/injection, vehicle: saline with Tween-80): 96 % of control | T/C (dose: 0.5 mg/kg/injection, vehicle: saline with Tween-80): 98 % of control | T/C (dose: 1.0 mg/kg/injection, vehicle: saline with Tween-80): 99 % of control | T/C (dose: 2.0 mg/kg/injection, vehicle: saline with Tween-80): 103 % of control

O=C1c2ccccc2-c2c(Br)c3ccccc3c(=O)n21
T/C [12]: 90 % of control | T/C [13]: 101 % of control | T/C [14]: 95 % of control | T/C [15]: 94 % of control

Reference: PubChem BioAssay AID200 (DTP/NCI, 2004)
